The record followed here is ChEMBL document CHEMBL3991601, “The target landscape of clinical kinase drugs” (Science, 2017).

Active and inactive are the calls of the source. For most assays here, no stated cut-off is given here; in the data, actives have a measured Kd and inactives only a lower limit. Some results are limits rather than exact numbers.

Assay [1] deals with T1, ATP-dependent RNA helicase DDX1 (Homo sapiens, UniProt Q92499).
T1 sequence (Q92499 whole entry): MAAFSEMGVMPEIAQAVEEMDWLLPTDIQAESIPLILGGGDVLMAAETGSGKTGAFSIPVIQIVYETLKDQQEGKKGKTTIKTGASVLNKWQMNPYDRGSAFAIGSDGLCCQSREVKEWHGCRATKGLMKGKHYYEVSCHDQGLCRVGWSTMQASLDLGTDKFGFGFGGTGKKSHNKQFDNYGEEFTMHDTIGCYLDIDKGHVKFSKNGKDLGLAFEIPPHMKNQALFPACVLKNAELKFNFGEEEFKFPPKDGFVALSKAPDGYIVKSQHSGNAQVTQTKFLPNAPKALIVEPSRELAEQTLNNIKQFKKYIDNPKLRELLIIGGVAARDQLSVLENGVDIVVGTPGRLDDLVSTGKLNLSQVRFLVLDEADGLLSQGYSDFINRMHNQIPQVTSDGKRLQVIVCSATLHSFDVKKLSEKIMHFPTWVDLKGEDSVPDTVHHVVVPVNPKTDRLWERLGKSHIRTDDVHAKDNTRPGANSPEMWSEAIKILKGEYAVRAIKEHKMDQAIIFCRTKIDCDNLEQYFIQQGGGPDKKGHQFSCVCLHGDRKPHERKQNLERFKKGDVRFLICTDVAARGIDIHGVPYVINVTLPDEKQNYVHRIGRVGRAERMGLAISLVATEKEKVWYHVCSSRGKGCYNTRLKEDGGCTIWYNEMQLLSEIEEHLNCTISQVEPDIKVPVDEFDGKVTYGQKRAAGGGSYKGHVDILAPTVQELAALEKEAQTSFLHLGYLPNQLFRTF

For assay [2], the target named is Ephrin type-A receptor 4 (Homo sapiens, UniProt P54764).
Assay [3] concerns the target T2, Serine/threonine-protein kinase LATS1 (Homo sapiens, UniProt O95835).
T2 sequence (O95835 whole entry): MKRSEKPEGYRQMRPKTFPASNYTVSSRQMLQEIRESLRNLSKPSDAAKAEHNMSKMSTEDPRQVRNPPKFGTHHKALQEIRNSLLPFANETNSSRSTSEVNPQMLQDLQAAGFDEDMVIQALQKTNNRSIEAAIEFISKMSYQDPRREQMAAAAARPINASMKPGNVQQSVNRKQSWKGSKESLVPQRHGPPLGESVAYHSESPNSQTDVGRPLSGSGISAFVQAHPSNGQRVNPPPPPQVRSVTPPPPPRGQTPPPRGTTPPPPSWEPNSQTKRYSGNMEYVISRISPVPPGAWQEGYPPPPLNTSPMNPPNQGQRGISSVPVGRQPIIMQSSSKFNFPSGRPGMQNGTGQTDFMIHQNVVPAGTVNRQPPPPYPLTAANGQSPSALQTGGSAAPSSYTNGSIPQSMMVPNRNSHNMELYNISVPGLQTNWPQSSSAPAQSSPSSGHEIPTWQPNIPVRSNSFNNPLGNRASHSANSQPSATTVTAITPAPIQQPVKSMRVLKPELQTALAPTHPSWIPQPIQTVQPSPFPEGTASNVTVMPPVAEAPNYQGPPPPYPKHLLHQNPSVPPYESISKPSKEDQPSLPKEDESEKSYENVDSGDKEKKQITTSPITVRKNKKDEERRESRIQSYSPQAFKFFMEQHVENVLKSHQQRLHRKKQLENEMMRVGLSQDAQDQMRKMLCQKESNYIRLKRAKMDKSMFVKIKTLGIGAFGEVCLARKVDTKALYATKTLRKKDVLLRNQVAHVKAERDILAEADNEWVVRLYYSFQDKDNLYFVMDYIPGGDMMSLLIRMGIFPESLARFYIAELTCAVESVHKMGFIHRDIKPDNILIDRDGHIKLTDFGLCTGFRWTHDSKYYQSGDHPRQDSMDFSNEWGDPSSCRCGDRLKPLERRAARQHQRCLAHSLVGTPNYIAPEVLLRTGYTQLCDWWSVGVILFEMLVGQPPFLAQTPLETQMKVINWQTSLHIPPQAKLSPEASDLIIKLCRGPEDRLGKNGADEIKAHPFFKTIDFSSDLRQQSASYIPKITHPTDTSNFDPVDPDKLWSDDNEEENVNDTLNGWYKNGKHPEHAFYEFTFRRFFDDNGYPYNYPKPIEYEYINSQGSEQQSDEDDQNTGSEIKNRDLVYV

For assay [4], the target named is Mitogen-activated protein kinase kinase kinase kinase 4 (Homo sapiens, UniProt O95819).
Assay [5] concerns the target T3, Serine/threonine-protein kinase Nek2 (Homo sapiens, UniProt P51955).
T3 sequence (P51955 whole entry): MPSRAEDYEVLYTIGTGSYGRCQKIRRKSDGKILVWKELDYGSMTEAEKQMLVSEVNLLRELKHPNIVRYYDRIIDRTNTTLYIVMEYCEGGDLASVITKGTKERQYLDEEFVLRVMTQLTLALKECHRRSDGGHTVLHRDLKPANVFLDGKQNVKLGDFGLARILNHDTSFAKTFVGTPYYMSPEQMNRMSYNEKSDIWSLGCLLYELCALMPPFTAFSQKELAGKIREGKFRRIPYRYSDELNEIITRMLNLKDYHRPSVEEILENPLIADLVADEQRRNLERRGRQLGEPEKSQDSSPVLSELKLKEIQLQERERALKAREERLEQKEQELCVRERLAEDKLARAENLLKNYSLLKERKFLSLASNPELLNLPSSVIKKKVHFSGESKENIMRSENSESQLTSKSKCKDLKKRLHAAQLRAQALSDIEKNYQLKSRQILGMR

Assay [6] addresses Ribosomal protein S6 kinase alpha-6 (Homo sapiens, UniProt Q9UK32).

Mitogen-activated protein kinase kinase kinase kinase 4, sequence (O95819 whole entry): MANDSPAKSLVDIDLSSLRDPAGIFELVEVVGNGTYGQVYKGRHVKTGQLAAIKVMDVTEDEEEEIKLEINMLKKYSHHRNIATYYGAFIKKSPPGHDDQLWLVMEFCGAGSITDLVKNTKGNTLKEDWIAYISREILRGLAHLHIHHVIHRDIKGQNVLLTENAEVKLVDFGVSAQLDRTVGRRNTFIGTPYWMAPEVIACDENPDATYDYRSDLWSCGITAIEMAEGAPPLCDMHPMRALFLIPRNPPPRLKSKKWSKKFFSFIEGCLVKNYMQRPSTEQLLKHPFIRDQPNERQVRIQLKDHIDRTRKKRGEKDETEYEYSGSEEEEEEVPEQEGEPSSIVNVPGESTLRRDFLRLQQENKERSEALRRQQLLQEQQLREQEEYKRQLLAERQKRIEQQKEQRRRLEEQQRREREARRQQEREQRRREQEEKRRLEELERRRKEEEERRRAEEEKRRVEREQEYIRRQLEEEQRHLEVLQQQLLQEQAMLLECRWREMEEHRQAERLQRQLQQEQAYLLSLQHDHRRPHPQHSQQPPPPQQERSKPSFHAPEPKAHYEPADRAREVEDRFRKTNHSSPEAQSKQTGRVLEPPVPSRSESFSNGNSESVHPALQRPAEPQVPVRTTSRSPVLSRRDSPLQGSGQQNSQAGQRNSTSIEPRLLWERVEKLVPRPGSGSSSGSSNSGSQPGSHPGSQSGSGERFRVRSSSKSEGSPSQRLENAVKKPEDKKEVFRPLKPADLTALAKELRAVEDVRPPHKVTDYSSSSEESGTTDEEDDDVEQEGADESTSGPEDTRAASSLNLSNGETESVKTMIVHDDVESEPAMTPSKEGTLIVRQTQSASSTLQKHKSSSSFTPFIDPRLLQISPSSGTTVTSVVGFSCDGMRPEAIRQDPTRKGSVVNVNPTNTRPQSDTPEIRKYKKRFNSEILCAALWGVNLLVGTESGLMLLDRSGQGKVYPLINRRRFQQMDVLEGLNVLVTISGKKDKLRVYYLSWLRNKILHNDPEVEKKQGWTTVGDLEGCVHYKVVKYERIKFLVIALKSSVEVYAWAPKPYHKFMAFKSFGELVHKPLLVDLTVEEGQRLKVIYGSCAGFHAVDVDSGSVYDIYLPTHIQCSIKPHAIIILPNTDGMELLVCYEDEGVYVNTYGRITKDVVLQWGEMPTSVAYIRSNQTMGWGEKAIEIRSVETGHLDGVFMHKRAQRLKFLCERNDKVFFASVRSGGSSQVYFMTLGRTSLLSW
Ribosomal protein S6 kinase alpha-6, sequence (Q9UK32 whole entry): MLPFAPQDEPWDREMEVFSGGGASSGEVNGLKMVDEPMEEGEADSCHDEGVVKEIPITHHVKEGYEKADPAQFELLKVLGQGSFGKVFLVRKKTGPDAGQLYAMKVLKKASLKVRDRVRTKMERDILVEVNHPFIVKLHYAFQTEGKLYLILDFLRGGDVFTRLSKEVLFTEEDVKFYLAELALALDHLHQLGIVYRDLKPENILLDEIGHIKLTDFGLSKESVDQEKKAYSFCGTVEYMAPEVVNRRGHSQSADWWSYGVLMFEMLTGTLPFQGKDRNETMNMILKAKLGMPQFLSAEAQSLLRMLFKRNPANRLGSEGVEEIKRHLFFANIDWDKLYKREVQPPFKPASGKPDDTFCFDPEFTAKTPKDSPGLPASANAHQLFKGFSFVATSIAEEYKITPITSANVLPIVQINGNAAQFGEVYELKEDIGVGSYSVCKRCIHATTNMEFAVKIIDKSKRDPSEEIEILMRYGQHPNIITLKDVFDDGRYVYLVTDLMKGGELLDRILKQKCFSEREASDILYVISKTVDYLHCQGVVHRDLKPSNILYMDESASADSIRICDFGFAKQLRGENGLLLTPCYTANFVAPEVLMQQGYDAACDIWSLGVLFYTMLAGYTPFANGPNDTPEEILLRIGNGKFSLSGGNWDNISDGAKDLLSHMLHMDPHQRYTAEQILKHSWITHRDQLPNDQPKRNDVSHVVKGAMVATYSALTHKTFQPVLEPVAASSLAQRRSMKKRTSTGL
Ephrin type-A receptor 4, sequence (P54764 whole entry): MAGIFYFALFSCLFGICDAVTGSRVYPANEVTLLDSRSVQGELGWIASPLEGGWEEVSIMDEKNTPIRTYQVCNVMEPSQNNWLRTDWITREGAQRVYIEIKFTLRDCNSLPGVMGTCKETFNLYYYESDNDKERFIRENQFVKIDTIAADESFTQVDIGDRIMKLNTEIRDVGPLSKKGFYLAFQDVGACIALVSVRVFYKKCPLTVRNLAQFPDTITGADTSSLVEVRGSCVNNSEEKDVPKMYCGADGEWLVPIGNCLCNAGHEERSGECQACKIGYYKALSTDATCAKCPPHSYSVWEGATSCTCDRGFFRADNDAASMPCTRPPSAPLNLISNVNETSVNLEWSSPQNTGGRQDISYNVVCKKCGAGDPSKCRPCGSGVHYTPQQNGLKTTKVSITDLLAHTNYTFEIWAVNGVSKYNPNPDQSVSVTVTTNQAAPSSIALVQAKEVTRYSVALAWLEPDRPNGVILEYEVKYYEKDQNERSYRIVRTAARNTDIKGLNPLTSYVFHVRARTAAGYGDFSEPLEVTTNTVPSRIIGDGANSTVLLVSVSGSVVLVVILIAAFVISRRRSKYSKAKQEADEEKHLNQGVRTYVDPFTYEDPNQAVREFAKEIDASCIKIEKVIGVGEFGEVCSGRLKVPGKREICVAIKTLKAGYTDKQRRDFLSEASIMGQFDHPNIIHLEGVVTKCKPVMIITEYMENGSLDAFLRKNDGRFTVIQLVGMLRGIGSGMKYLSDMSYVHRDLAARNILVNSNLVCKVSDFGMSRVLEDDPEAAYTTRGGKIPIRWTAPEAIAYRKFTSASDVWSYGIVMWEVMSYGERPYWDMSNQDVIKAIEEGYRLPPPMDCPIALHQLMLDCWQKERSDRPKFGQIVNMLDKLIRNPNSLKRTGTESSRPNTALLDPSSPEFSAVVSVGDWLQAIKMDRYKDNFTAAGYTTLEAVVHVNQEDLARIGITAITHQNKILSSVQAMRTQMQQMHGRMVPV

For orientation: Kd means the equilibrium constant for the complex coming apart. Consider `CO[C@H]1C[C@@H]2CC[C@@H](C)[C@@](O)(O2)C(=O)C(=O)N2CCCC[C@H]2C(=O)O[C@H]([C@H](C)C[C@@H]2CC[C@@H](O)[C@H](OC)C2)CC(=O)[C@H](C)/C=C(\C)[C@@H](O)[C@@H](OC)C(=O)[C@H](C)C[C@H](C)/C=C/C=C/C=C/1C` [SIROLIMUS], for which the Kd in assay [1], in assay [2], in assay [3], in assay [4], in assay [5] and in assay [6] was > 30 µM (inactive) each time.

As to `CCS(=O)(=O)c1cccc(-c2cc(C(=O)NC3CCN(C)CC3)c(C)c3[nH]c4ncc(C)cc4c23)c1` [TAK-901], the Kd in assay [1] was > 30 µM (inactive); in assay [2], 0.022 µM (active); in assay [3] it was > 30 µM (inactive); in assay [4], > 30 µM (inactive); in assay [5], > 30 µM (inactive); in assay [6] it was 0.899 µM (active).

In the case of `CO[C@H]1C[C@@H]2CC[C@@H](C)[C@@](O)(O2)C(=O)C(=O)N2CCCC[C@H]2C(=O)O[C@H]([C@H](C)C[C@@H]2CC[C@@H](OC(=O)C(C)(CO)CO)[C@H](OC)C2)CC(=O)[C@H](C)/C=C(\C)[C@@H](O)[C@@H](OC)C(=O)[C@H](C)C[C@H](C)/C=C/C=C/C=C/1C` [TEMSIROLIMUS], the Kd in assay [1], in assay [2], in assay [3], in assay [4], in assay [5] and in assay [6] was > 30 µM (inactive) throughout.

Turning to `COc1cc2c(Nc3ccc(Cl)c(Cl)c3F)ncnc2cc1OC[C@@H]1C[C@@H]2CN(C)C[C@@H]2C1` [TESEVATINIB], the Kd is > 30 µM (inactive) in assay [1]; 0.44 µM (active) in assay [2]; > 30 µM (inactive) in assay [3]; 1.91 µM (active) in assay [4]; > 30 µM (inactive) in assay [5]; > 30 µM (inactive) in assay [6].

`O=C(Cc1ccc(-c2ccc(OCCN3CCOCC3)cc2)cn1)NCc1ccccc1` [TIRBANIBULIN]: the Kd in assay [1], in assay [2], in assay [3], in assay [4], in assay [5] and in assay [6] was > 30 µM (inactive) throughout.

On to `O=C1NC(=O)[C@@H](c2cn3c4c(cccc24)CCC3)[C@@H]1c1c[nH]c2ccccc12` [TIVANTINIB], for which the Kd in assay [1], in assay [2], in assay [3], in assay [4], in assay [5] and in assay [6] was > 30 µM (inactive) in each case.

Consider `C[C@@H](NC(=O)c1ncnc(N)c1Cl)c1ncc(C(=O)Nc2cc(C(F)(F)F)c(Cl)cn2)s1` [TOVORAFENIB], for which the Kd in assay [1], in assay [2], in assay [3], in assay [4], in assay [5] and in assay [6] was > 30 µM (inactive) in each case.

For `Cc1cc(Nc2ncnc3ccc(NC4=NC(C)(C)CO4)cc23)ccc1Oc1ccn2ncnc2c1` [TUCATINIB], the Kd in assay [1], in assay [2], in assay [3], in assay [4], in assay [5] and in assay [6] was > 30 µM (inactive) each time.

Consider `Cn1ncc(Cl)c1-c1cc(C(=O)N[C@H](CN)Cc2ccc(F)c(F)c2)oc1Cl` [UPROSERTIB], for which the Kd was > 30 µM (inactive) in assay [1]; > 30 µM (inactive) in assay [2]; 3.59 µM in assay [3]; > 30 µM (inactive) in assay [4]; > 30 µM (inactive) in assay [5]; > 30 µM (inactive) in assay [6].

As to `CC(C)c1cc(CNc2nc(Nc3cc(C4CC4)[nH]n3)cc(N3CCN(C)CC3)n2)on1` [XL-228], the Kd was > 30 µM (inactive) in assay [1]; 0.167 µM (active) in assay [2]; > 30 µM (inactive) in assay [3]; > 30 µM (inactive) in assay [4]; > 30 µM (inactive) in assay [5]; > 30 µM (inactive) in assay [6].

`C[C@@H](N)c1ccc(C(=O)Nc2ccnc3[nH]ccc23)cc1` [Y-39983]: the Kd was > 30 µM (inactive) in assay [1]; > 30 µM (inactive) in assay [2]; > 30 µM (inactive) in assay [3]; 0.946 µM (active) in assay [4]; > 30 µM (inactive) in assay [5]; > 30 µM (inactive) in assay [6].

Take `CN1C/C=C/CCOc2cccc(c2)-c2ccnc(n2)Nc2cccc(c2)C1` [ZOTIRACICLIB]: the Kd in assay [1], in assay [2], in assay [3], in assay [4], in assay [5] and in assay [6] was > 30 µM (inactive) each time.
